According to patent US20180360799A1, “Nitrofuran Derivatives That Induce Apoptosis in Breast Cancer Cells by Activating Protein Expression” (Oklahoma Medical Research Foundation, priority 2015, published 2018):

How the values were obtained:
[1] = system: CHOP promoter-luciferase (CHOP-Luc) reporter; test: CHOP-Luc reporter assay in HEK293 cells (Bright-Glo); format: cell-based, human; settings: 10 μM, 24 h
Description: To identify compounds that activate the expression of CHOP, a HEK293 cell line stably expressing a CHOP-Luc reporter construct that faithfully reflects endogenous CHOP gene expression^21 was used to screen approximately 50,000 structurally diverse small molecules.
HEK293T CHOP-Luc cells were seeded at 7×10^3 cells/well in 384-well plates and treated with 10 μM of the library compounds the next day. After 24 h treatment, the medium was aspirated and 20 μL/well of Bright-Glo luciferase assay reagent was added. Luminescence was measured with an EnVision multilabel plate reader (PerkinElmer, Waltham, Mass., US). Hit selection was based on standard scores. The mean and standard deviation (SD) of luminescence for each compound was determined, and the standard score for each compound was then calculated as (raw measurement of a compound−mean)/SD of the plate. Compounds that increased ATP levels >3 SD compared with control wells (standard score >3) were considered hits.

HCC-1806 cells = test: Cell viability, CellTiter-Glo, HCC-1806; format: cell-based; settings: Homo sapiens, HCC1806; 0.125 μM to 20 μM, CellTiter-Glo; read-out: IC50 cell viability HCC-1806
Description: (§1) Given the known functions of CHOP in ER stress-induced apoptosis^16, 17 and in regulating cancer cell death,^6, 19, 20 the inventor investigated whether compound 1 affects the viability of TNBC cells. Three human TNBC cell lines, HCC-1806, HCC-1143, and HCC-38, were treated with doses of 1 ranging from 0.125 μM to 20 μM and their viability was assessed using the CellTiter-Glo assay, which measures intracellular ATP levels.
(§2) HCC-1806, HCC-1143, or HCC-38 cells were seeded at 3×10^3 cells/well in a 384-well plate and treated with compounds at the indicated concentrations. After 3 d treatment, the medium was aspirated and 20 μL/well of CellTiter-Glo reagent was added. Cell viability was measured with an EnVision multilabel plate reader. The IC50 value for cell viability of each compound was calculated with GraphPad Prism (La Jolla, Calif., US).

endogenous CHOP gene = test: Endogenous CHOP mRNA by qRT-PCR in HEK293 cells; format: cell-based, human; settings: 10 μM, 24 h
Description: The primer sequences used were: Human CHOP: SEQ ID NO: 1 F, 5′-[sequence]-3′ and SEQ ID NO: 2 R, 5′-[sequence]-3′. Human ATF4: SEQ ID NO: 3 F, 5′-[sequence]-3′ and SEQ ID NO: 4 R, 5′-[sequence]-3′. […] Human Cyclophilin A: SEQ ID NO: 7 F, 5′-[sequence]-3′ and SEQ ID NO: 8 R, 5′-[sequence]-3′. Human GAPDH: SEQ ID NO: 9 F, 5′-[sequence]-3′ and SEQ ID NO: 10 R, 5′-[sequence]-3′.

HCC-1143 cells = test: Cell viability, CellTiter-Glo, HCC-1143; format: cell-based; settings: Homo sapiens, HCC1143; 0.125 μM to 20 μM, CellTiter-Glo; read-out: IC50 cell viability HCC-1143
Description: as §1, §2

HCC-38 cells = test: Cell viability, CellTiter-Glo, HCC-38; format: cell-based; settings: Homo sapiens, HCC38; 0.125 μM to 20 μM, CellTiter-Glo; read-out: IC50 cell viability HCC-38
Description: as §1, §2

[2] = system: UPRE-Luciferase (UPRE-Luc) reporter; test: UPRE-Luc reporter assay in HEK293 cells; format: cell-based, human; settings: 3d 10 μM or Tm 1 μg/mL, 24 h
Description: (§3) FIG. 3G is a graph showing HEK293 cells stably expressing CHOP-Luc, ERSE-Luc, or UPRE-luc reporters were treated with DMSO, a 5-nitrofuran-2-amide derivative, or tunicamycin. HEK293 cells stably expressing CHOP-Luc, ERSE-Luc, or UPRE-luc reporters were treated with DMSO, compound 3d (10 μM), or Tm (1 μg/mL) for 24 h, and luciferase activity was measured using the Bright-Glo assay. Results are the means of 4 replicate wells and are representative of 3 independent experiments.
(§4) The inventor next asked whether the IRE1α and ATF6 branches of the unfolded protein response were also activated by compound 3d treatment of TNBC cells. […] XBP1 mRNA splicing, as measured by XBP1s levels, increased only slightly in the first 24 h after compound 3d treatment of HCC-1806 cells (from 11% of total XBP1 at 0 h to 15˜20% at 2˜24 h). […] Next, it was determined whether compound 3d activates the ATF6 pathway by evaluating its effect on the activity of an ER stress response elements (ERSE)-Luc reporter stably established in HEK293 cell line.
(§5) The HEK293T CHOP reporter cell line (CHOP-Luc) was previously described.^21 HEK293T cells were stably transfected with ERSE-Luciferase^25 and UPRE-Luciferase^23 reporters to generate ERSE-Luc and UPRE-Luc reporter cell lines, respectively. […] Luciferase activity was measured with a Bright-Glo kit 24 h later.

[3] = system: ER stress response elements (ERSE)-Luc reporter; test: ERSE-Luc reporter assay in HEK293 cells; format: cell-based, human; settings: Tm 1 μg/mL, 24 h
Description: as §3, §4, §5

[4] = system: XBP1 mRNA splicing (IRE1α pathway); test: XBP1 mRNA splicing by RT-PCR in HCC-1806 cells; format: cell-based, human; settings: HCC-1806, tunicamycin 1 μg/mL, at 8 h
Description: FIG. 3E is a graph showing XBP1 mRNA levels in HCC-1806 cells treated with tunicamycin or a 5-nitrofuran-2-amide derivative compound 3d. HCC-1806 cells were treated with compound 3d (10 μM) or tunicamycin (Tm, 1 μg/mL) for the indicated times. XBP1 mRNA levels were analyzed by RT-PCR and the products were resolved by agarose gel electrophoresis. The full-length (unspliced, XBP1u) and spliced (XBP1s) forms of XBP1 mRNA are indicated. GAPDH mRNA was used as an internal control.
The percentage of XBP1s relative to total XBP1 was calculated as: (XBP1s/[XBP1s+XBP1u])×100%. The data shown are representative of 3 independent studies.
The inventor next asked whether the IRE1α and ATF6 branches of the unfolded protein response were also activated by compound 3d treatment of TNBC cells. […] XBP1 mRNA splicing, as measured by XBP1s levels, increased only slightly in the first 24 h after compound 3d treatment of HCC-1806 cells (from 11% of total XBP1 at 0 h to 15˜20% at 2˜24 h). […] Next, it was determined whether compound 3d activates the ATF6 pathway by evaluating its effect on the activity of an ER stress response elements (ERSE)-Luc reporter stably established in HEK293 cell line. […]

Compound | increase of CHOP-Luc reporter activity [1] [fold] | IC50 (HCC-1806 cells) [µM] | increase of mRNA level of the endogenous CHOP gene (endogenous CHOP gene) | IC50 (HCC-1143 cells) [µM] | IC50 (HCC-38 cells) [µM] | increase of UPRE-Luc luciferase activity [2] [fold] | increase of ERSE-driven luciferase activity [3] [fold] | XBP1s, percentage of total XBP1 [4] [%]
O=C(Nc1ccc(I)cc1)c1ccc([N+](=O)[O-])o1 [Compound 1, N-(4-iodophenyl)-5-nitrofuran-2-carboxamide] | 24 | 6.2 | up to 30 fold | 9.5 | 8.7 |  |  | 
tunicamycin [reference compound] |  |  |  |  |  | > 25 | ~12 | ~87
